From ChEMBL document CHEMBL4602694, “Suppression of Drug-Resistant Non-Small-Cell Lung Cancer with Inhibitors Targeting Minichromosomal Maintenance Protein” (J Med Chem, 2020)
Calls of active or inactive are those of the source. No cut-off for these calls is given here.

Tests used:
NCI-H1975 [1] = experiment: Antitumor activity against human NCI-H1975 cells xenografted in athymic nude BALB/c mouse assessed as tumor growth at 1 mg/kg, ip administered for 4 weeks (reference value: 1217 +/- 516.6 cu.mm); format: functional
NCI-H1975 [2] = experiment: Cell cycle arrest in human NCI-H1975 cells assessed as accumulation in G1/S phase at 140 nM incubated for 48 hrs by DAPI staining based immunofluorescence microscopy; format: functional
[3] = target: DNA replication licensing factor MCM2 (Homo sapiens) (UniProt P49736); experiment: Induction of ubiquitination of MCM2 in human H3255 cells incubated for 24 hrs by immunoblot analysis; format: cell-based; conditions: NCI-H3255
[4] = target: T1, DNA replication licensing factor MCM6 (Homo sapiens) (UniProt Q14566); experiment: Induction of ubiquitination of MCM6 in human H3255 cells incubated for 24 hrs by immunoblot analysis; format: cell-based; conditions: NCI-H3255
T1 sequence (whole entry): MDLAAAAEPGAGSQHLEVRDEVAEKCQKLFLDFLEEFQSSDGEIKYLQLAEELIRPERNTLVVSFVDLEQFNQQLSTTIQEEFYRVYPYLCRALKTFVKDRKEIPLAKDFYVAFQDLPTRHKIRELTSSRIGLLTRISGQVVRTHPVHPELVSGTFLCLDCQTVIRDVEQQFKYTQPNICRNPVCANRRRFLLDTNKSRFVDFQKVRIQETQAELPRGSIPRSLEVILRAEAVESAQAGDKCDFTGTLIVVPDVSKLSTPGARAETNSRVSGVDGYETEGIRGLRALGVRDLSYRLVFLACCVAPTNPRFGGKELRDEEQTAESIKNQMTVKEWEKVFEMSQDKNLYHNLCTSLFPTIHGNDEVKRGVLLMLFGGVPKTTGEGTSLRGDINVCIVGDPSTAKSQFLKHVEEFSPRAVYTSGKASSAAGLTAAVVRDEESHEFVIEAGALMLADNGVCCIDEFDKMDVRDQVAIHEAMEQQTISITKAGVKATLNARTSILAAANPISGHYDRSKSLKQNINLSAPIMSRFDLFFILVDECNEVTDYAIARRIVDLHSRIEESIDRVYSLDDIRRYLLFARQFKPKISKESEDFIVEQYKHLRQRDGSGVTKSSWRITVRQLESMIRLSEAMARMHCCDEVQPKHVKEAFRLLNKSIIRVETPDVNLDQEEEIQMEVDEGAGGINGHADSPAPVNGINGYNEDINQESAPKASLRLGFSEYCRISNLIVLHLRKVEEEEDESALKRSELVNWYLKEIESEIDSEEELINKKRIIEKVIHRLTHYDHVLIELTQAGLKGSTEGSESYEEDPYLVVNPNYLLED

[5] = target: DNA replication licensing factor MCM2 (Homo sapiens) (UniProt P49736); experiment: Induction of ubiquitination of MCM2 in human NCI-H1975 cells incubated for 48 hrs by immunoblot analysis (reference value: 1); format: cell-based
[6] = target: T2, DNA replication licensing factor MCM3 (Homo sapiens) (UniProt P25205); experiment: Induction of ubiquitination of MCM3 in human NCI-H1975 cells incubated for 24 hrs by immunoblot analysis (reference value: 1); format: cell-based
T2 sequence (whole entry): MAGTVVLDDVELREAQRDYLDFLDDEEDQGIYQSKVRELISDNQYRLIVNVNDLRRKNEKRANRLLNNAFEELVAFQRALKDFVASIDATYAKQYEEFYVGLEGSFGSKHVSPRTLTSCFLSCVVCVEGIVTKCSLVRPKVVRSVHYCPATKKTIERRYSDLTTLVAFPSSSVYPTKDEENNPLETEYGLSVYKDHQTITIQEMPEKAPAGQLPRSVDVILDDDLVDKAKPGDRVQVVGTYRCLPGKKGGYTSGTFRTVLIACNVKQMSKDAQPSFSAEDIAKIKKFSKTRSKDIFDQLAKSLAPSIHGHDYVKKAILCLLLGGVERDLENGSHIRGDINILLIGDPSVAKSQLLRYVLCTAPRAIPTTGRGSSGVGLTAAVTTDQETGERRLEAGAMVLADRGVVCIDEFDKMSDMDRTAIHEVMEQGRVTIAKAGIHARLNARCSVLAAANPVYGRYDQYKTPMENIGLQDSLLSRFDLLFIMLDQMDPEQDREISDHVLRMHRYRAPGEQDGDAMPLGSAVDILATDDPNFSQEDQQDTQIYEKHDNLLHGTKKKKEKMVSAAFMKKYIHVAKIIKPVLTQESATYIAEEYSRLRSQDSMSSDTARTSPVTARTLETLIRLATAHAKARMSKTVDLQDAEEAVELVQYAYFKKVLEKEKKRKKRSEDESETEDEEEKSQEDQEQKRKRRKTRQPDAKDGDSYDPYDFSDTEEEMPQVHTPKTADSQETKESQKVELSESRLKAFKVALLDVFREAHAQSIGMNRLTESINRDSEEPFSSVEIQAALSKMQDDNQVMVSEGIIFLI

[7] = target: T2, DNA replication licensing factor MCM3 (Homo sapiens); experiment: Induction of ubiquitination of MCM3 in human NCI-H1975 cells incubated for 72 hrs by immunoblot analysis (reference value: 1); format: cell-based
[8] = target: T3, DNA replication licensing factor MCM4 (Homo sapiens) (UniProt P33991); experiment: Induction of ubiquitination of MCM4 in human NCI-H1975 cells incubated for 48 hrs by immunoblot analysis (reference value: 1); format: cell-based
T3 sequence (whole entry): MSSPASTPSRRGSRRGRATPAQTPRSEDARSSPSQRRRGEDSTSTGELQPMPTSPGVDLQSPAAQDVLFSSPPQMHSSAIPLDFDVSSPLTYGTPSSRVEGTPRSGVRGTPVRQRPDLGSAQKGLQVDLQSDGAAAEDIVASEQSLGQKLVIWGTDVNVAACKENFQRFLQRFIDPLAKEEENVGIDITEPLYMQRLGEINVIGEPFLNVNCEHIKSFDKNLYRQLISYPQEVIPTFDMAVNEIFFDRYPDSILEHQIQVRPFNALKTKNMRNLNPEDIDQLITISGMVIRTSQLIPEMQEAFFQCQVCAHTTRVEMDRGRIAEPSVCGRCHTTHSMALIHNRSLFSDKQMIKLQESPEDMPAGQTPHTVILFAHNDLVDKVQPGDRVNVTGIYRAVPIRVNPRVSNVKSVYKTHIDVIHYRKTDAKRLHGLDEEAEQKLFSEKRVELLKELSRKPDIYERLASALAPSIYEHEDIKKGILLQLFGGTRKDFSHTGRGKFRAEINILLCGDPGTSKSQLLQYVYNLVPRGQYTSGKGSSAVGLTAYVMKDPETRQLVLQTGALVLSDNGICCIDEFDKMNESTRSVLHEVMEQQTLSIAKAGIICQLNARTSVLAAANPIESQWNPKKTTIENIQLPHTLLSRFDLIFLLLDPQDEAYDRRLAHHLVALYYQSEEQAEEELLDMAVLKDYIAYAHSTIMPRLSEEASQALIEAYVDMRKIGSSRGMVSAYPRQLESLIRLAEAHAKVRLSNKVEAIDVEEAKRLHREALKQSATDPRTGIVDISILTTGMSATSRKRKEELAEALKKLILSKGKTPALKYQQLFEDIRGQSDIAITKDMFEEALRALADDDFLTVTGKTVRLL

[9] = Selectivity index, ratio of IC50 for human bronchial epithelial cells to IC50 for human NCI-H1975 cells; format: toxicity; conditions: human bronchial epithelial cells versus NCI-H1975 cells, read-out: Ratio IC50

DNA replication licensing factor MCM2 (Homo sapiens), sequence (P49736 whole entry): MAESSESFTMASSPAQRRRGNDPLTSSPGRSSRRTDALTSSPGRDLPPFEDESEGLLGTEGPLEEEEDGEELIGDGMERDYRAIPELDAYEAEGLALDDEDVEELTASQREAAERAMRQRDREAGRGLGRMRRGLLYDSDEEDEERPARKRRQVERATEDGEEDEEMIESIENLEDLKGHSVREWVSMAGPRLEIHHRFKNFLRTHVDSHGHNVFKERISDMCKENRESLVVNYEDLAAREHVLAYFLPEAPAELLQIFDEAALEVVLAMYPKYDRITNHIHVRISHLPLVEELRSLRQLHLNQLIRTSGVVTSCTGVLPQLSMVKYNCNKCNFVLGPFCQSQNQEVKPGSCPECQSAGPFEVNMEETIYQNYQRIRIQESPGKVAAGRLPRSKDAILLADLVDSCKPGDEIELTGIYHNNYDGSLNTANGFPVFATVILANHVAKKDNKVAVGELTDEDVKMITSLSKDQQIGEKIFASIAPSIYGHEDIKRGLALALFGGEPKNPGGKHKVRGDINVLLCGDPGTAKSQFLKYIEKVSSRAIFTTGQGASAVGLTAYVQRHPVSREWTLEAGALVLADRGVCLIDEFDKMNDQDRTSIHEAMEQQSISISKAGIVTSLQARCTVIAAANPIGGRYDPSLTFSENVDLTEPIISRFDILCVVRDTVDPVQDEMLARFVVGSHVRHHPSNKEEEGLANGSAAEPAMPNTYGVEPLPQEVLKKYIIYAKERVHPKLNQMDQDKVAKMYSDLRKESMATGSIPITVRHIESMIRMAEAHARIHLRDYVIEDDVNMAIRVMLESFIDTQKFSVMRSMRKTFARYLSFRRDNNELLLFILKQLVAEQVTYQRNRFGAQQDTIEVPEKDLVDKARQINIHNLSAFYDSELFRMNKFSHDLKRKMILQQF

Activity [3]: Active
Activity [4]: Active
Activity [5]: 0.4
Activity [6]: 1.1
Activity [7]: 0.1
Activity [8]: 1.1
SMILES: Cc1oc2c(c1C(=O)NCCCn1ccnc1)C(=O)c1ccccc1C2=O
Activity (NCI-H1975 [1]): 701.2 mm3
Activity (NCI-H1975 [2]): Active
selectivity ratio [9]: > 10
